Laboratory results: paper PMC7531004, “Discovery of gramicidin A analogues with altered activities by multidimensional screening of a one-bead-one-compound library” (Nature Communications, 2020)
Where a SMILES comes first, the peptide text is derived from it. [ ]: non-standard residue; d: D form. The star is where a group is joined. NHCH2CH2OH = OCCN*; For = O=C*

Tests used:
[1] = H+/Na+ transport assay of bead-derived peptides (one-point); type: biochemical; set-up: key: relative activity; mean of two control wells = 1.00; details: bead-derived peptide solution, EYPC/EYPG LUVs;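 note: relative to parent gramicidin A activity set to 1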
Experimental: (§1) Each type of assay must be simplified and miniaturized to assess the activities of the library peptides in a 96-well format for the high-throughput screening.
H+/Na+ transport assay of bead-derived peptides.1,2,3 Trisodium 8-hydroxypyrene-1,3,6-trisulfonate
mini-extruder apparatus (Avanti Polar Lipids).
28.9 µmol) in CHCl3 (225 µL) and egg yolk phosphatidylglycerol (1.20 mg, 1.56 µmol) in CHCl3 (60.0 µL)
The thin film was hydrated and
1.0 mM pyranine) by sonication.
A suspension of the LUVs was immediately
used for the H+/Na+ transport assay.
The diluted solution of peptide
flat-bottom 96-well plate (655086, Greiner bio-one).
was vortexed at room temperature for 30 min.
(5/95, 3.0 µL) and the LUV suspension were mixed in each plate to determine 100% lysis. The untreated
LUV suspension was used to determine 0% lysis.
normalized against 100% lysis by Triton X-100 (Imax) and 0% lysis (I0) as following, where Ix is the
fluorescence intensity (Supplementary Equation 2).
I = 100 × (Ix – I0) / (Imax – I0) (2)
The mean value of the two control wells was set to 1.00. […]

[2] = system: Streptococcus pyogenes SSI-9; assay: Antibacterial activity assay of bead-derived peptides (three concentrations); type: cell-based; set-up: key: +++: inhibition by the 640-fold diluted peptide solution; ++: inhibition by the 160-fold diluted solution; +: inhibition by the 40-fold diluted solution; -: no inhibition; details: S. pyogenes, bead-derived peptide solution, three concentrations
Experimental: as §1
Next, the peptides in groups A and B were subjected to the antibacterial assay and structural determination. Three peptide concentrations were applied to evaluate the growth inhibition of S. pyogenes and determine the antibacterial activity. […] Finally, the structures of the peptides were determined. […]
Antibacterial activity assay of bead-derived peptides. The stock solution of the peptide library was 4- and […]
16-fold diluted with DMSO. The non-diluted stock solution, 4-fold diluted solution, and 16-fold diluted […]
solution were transferred to the 96-well round-bottom plate (3367, Corning, 1.0 µL/well). To the solution of […]
peptide in each well was added a suspension of Streptococcus pyogenes SSI-9 strain in cation adjusted […]
Mueller Hinton Broth [40.0 µL, 2 × 10^5 colony forming units (CFU), 21 g/L Mueller Hinton Broth (Difco), 50 […]
mg/L Ca2+ (adjusted with CaCl2•2H2O), and 25 mg/L Mg2+ (adjusted with MgCl2•6H2O)] supplemented with […]
5% laked horse blood (Nippon Biotest Laboratories). The plate was incubated at 37 °C for 18 h, and the precipitation of the grown cells was examined. […]

[3] = system: P388 mouse leukemia cells; details: 92 h
Excerpt: Each type of assay must be simplified and miniaturized to assess the activities of the library peptides in a 96-well format for the high-throughput screening. […]
Mammalian cytotoxicity assay of bead-derived peptides . P388 cells were obtained from Institute of
Development Aging and Cancer (Tohoku University). The cells were maintained with growth medium
[RPMI1640 with phenol red ( Fujifilm Wako Pure Chemical) supplemented with 10% heat -inactivated fetal
bovine serum, pe nicillin G (100 units/mL), and streptomycin (100 µg/mL)] under atmosphere of 5% CO 2 at
The collected cells were resuspended into
the growth medium at 2 × 10^4 cells/mL. The stock solutions of the peptide library were 250-fold diluted
with the growth medium. Aliquots of the medium (100 µL) containing peptides and the latter medium
containing P388 cells (100 µL) were mixed in a 96-well cell culture plate (TR5003, TrueLine). The final
concentration of P388 cells was 1 × 10^4 cells/mL. After incubation under atmosphere of 5% CO2 at 37 °C
for 92 h, the numbers of viable cells were determined by
2-(4-iodophenyl)-3-(4-nitrophenyl)-5-(2,4-disulfophenyl)-2H-tetrazolium, monosodium salt (WST-1) assay.
A solution of 1-methoxy-5-methylphenazinium methyl sulfate (1-methoxy PMS) and WST-1 in the growth
medium (1-methoxy PMS 0.70 mg/mL in Milli-Q/WST-1 3.6 mg/mL in pH 7.4 HEPES buffer = 1/9) was
added to each well of the plate (10.0 µL/well). The plate was incubated for 4 h under atmosphere of 5% CO2
at 37 °C. The absorbance of each well at 415 nm was measured using a Benchmark microplate reader
(Bio-Rad). The cytotoxicities were evaluated as cell viability (%). […]

| Structure (SMILES) | H+/Na+ transport activity normalized against the value of 1 (1.00) [1] | antibacterial activity [2] | cell viability/% [3] |
| --- | --- | --- | --- |
| CC(C)C[C@@H](NC(=O)[C@H](C)NC(=O)CNC(=O)[C@@H](NC=O)C(C)C)C(=O)N[C@@H](C)C(=O)N[C@H](CC(C)C)C(=O)N[C@H](C(=O)N[C@@H](C(=O)N[C@@H](Cc1c[nH]c2ccccc12)C(=O)N[C@@H](C(=O)N[C@@H](Cc1c[nH]c2ccccc12)C(=O)N[C@@H](C(=O)N[C@@H](Cc1c[nH]c2ccccc12)C(=O)N[C@H](CC(C)C)C(=O)N[C@@H](Cc1c[nH]c2ccccc12)C(=O)NCCO)C(C)C)C(C)C)C(C)C)C(C)C [compound 12040] (For-VGA[dL]A[dL]V[dV]W[dV]W[dV]W[dL]W-NHCH2CH2OH) | 1.07 | + | 100.0% |
| CC(C)C[C@@H](NC(=O)[C@H](C)NC(=O)[C@H](NC(=O)[C@H](C)NC(=O)CNC(=O)[C@@H](NC=O)C(C)C)C(C)C)C(=O)N[C@H](C(=O)N[C@@H](C(=O)N[C@@H](Cc1c[nH]c2ccccc12)C(=O)N[C@@H](C(=O)N[C@@H](Cc1c[nH]c2ccccc12)C(=O)N[C@H](CC(C)C)C(=O)N[C@@H](Cc1c[nH]c2ccccc12)C(=O)N[C@H](CC(C)C)C(=O)N[C@@H](Cc1c[nH]c2ccccc12)C(=O)NCCO)[C@H](C)O)[C@H](C)O)C(C)C [compound 8374] (For-VGA[dV]A[dL]V[dT]W[dT]W[dL]W[dL]W-NHCH2CH2OH) | 1.02 | - | 66.4% |
| CC(C)C[C@@H](NC(=O)[C@H](Cc1c[nH]c2ccccc12)NC(=O)[C@H](NC(=O)[C@H](Cc1c[nH]c2ccccc12)NC(=O)[C@@H](CC(C)C)NC(=O)[C@H](Cc1c[nH]c2ccccc12)NC(=O)[C@H](NC(=O)[C@@H](NC(=O)[C@H](NC(=O)[C@H](C)NC(=O)[C@H](NC(=O)[C@H](C)NC(=O)CNC(=O)[C@@H](NC=O)C(C)C)C(C)C)C(C)C)C(C)C)C(C)C)C(C)C)C(=O)N[C@@H](Cc1c[nH]c2ccccc12)C(=O)NCCO [compound 9293] (For-VGA[dV]A[dV]V[dV]W[dL]W[dV]W[dL]W-NHCH2CH2OH) | 1.05 | ++ | 4.3% |
| CC(C)C[C@@H](NC(=O)[C@H](C)NC(=O)CNC(=O)[C@@H](NC=O)C(C)C)C(=O)N[C@@H](C)C(=O)N[C@@H](C(=O)N[C@H](C(=O)N[C@@H](C(=O)N[C@@H](Cc1c[nH]c2ccccc12)C(=O)N[C@@H](C(=O)N[C@@H](Cc1c[nH]c2ccccc12)C(=O)N[C@H](CC(C)C)C(=O)N[C@@H](Cc1c[nH]c2ccccc12)C(=O)N[C@@H](C(=O)N[C@@H](Cc1c[nH]c2ccccc12)C(=O)NCCO)C(C)C)C(C)C)C(C)C)C(C)C)C(C)C [compound 1289] (For-VGA[dL]A[dV]V[dV]W[dV]W[dL]W[dV]W-NHCH2CH2OH) | 1.03 | + | 95.6% |
| CNC(=O)C[C@@H](NC(=O)[C@@H](NC(=O)[C@H](NC(=O)[C@H](C)NC(=O)[C@H](NC(=O)[C@H](C)NC(=O)CNC(=O)[C@@H](NC=O)C(C)C)C(C)C)C(C)C)C(C)C)C(=O)N[C@@H](Cc1c[nH]c2ccccc12)C(=O)N[C@H](CC(C)C)C(=O)N[C@@H](Cc1c[nH]c2ccccc12)C(=O)N[C@H](CC(C)C)C(=O)N[C@@H](Cc1c[nH]c2ccccc12)C(=O)N[C@@H](C(=O)N[C@@H](Cc1c[nH]c2ccccc12)C(=O)NCCO)C(C)C [compound 11796] (For-VGA[dV]A[dV]V[dD](NHMe)W[dL]W[dL]W[dV]W-NHCH2CH2OH) | 1.33 | - | 100.0% |
| CC(C)C[C@@H](NC(=O)[C@H](C)NC(=O)CNC(=O)[C@@H](NC=O)C(C)C)C(=O)N[C@@H](C)C(=O)N[C@H](CC(C)C)C(=O)N[C@H](C(=O)N[C@H](CC(C)C)C(=O)N[C@@H](Cc1c[nH]c2ccccc12)C(=O)N[C@@H](C(=O)N[C@@H](Cc1c[nH]c2ccccc12)C(=O)N[C@@H](C(=O)N[C@@H](Cc1c[nH]c2ccccc12)C(=O)N[C@@H](C(=O)N[C@@H](Cc1c[nH]c2ccccc12)C(=O)NCCO)C(C)C)C(C)C)C(C)C)C(C)C [compound 5611] (For-VGA[dL]A[dL]V[dL]W[dV]W[dV]W[dV]W-NHCH2CH2OH) | 1.17 | + | 3.9% |
| CC(C)C[C@@H](NC(=O)[C@H](Cc1c[nH]c2ccccc12)NC(=O)[C@H](NC(=O)[C@H](Cc1c[nH]c2ccccc12)NC(=O)[C@H](NC(=O)[C@H](Cc1c[nH]c2ccccc12)NC(=O)[C@@H](CC(C)C)NC(=O)[C@@H](NC(=O)[C@H](NC(=O)[C@H](C)NC(=O)[C@H](NC(=O)[C@H](C)NC(=O)CNC(=O)[C@@H](NC=O)C(C)C)C(C)C)C(C)C)C(C)C)C(C)C)C(C)C)C(=O)N[C@@H](Cc1c[nH]c2ccccc12)C(=O)NCCO [compound 12721] (For-VGA[dV]A[dV]V[dL]W[dV]W[dV]W[dL]W-NHCH2CH2OH) | 1.04 | + | 51.7% |
| CNC(=O)C[C@@H](NC(=O)[C@@H](NC(=O)[C@H](NC(=O)[C@H](C)NC(=O)[C@@H](CC(C)C)NC(=O)[C@H](C)NC(=O)CNC(=O)[C@@H](NC=O)C(C)C)C(C)C)C(C)C)C(=O)N[C@@H](Cc1c[nH]c2ccccc12)C(=O)N[C@@H](C(=O)N[C@@H](Cc1c[nH]c2ccccc12)C(=O)N[C@H](CC(C)C)C(=O)N[C@@H](Cc1c[nH]c2ccccc12)C(=O)N[C@@H](C(=O)N[C@@H](Cc1c[nH]c2ccccc12)C(=O)NCCO)C(C)C)C(C)C [compound 9521] (For-VGA[dL]A[dV]V[dD](NHMe)W[dV]W[dL]W[dV]W-NHCH2CH2OH) | 1.14 | - | 100.0% |
| CC(C)C[C@@H](NC(=O)[C@H](C)NC(=O)CNC(=O)[C@@H](NC=O)C(C)C)C(=O)N[C@@H](C)C(=O)N[C@H](CC(C)C)C(=O)N[C@H](C(=O)N[C@H](CC(C)C)C(=O)N[C@@H](Cc1c[nH]c2ccccc12)C(=O)N[C@H](CC(C)C)C(=O)N[C@@H](Cc1c[nH]c2ccccc12)C(=O)N[C@@H](C(=O)N[C@@H](Cc1c[nH]c2ccccc12)C(=O)N[C@@H](C(=O)N[C@@H](Cc1c[nH]c2ccccc12)C(=O)NCCO)C(C)C)C(C)C)C(C)C [compound 2718] (For-VGA[dL]A[dL]V[dL]W[dL]W[dV]W[dV]W-NHCH2CH2OH) | 1.11 | + | 0.3% |
| CC(C)C[C@@H](NC(=O)[C@H](C)NC(=O)[C@H](NC(=O)[C@H](C)NC(=O)CNC(=O)[C@@H](NC=O)C(C)C)[C@H](C)O)C(=O)N[C@H](C(=O)N[C@H](CC(C)C)C(=O)N[C@@H](Cc1c[nH]c2ccccc12)C(=O)N[C@@H](C(=O)N[C@@H](Cc1c[nH]c2ccccc12)C(=O)N[C@H](CC(C)C)C(=O)N[C@@H](Cc1c[nH]c2ccccc12)C(=O)N[C@@H](C(=O)N[C@@H](Cc1c[nH]c2ccccc12)C(=O)NCCO)C(C)C)[C@H](C)O)C(C)C [compound 4545] (For-VGA[dT]A[dL]V[dL]W[dT]W[dL]W[dV]W-NHCH2CH2OH) | 1.18 | - | 100.0% |
